Assay results taken from patent publication US7638531B2, “Phenoxypiperidines and analogs thereof useful as histamine H3 antagonists” (Schering Corporation, priority 2005, dated 2009).

Columns and labels:
mice fed a high-fat diet = assay: Diet-induced obesity in mice; assay type: in vivo; settings: high-fat diet days 0 to 4, 10 mg/kg by gavage once daily for four days, versus vehicle control
Protocol: Lean mice (male, approx. 5 weeks of age, purchased from The Jackson Laboratory, Bar Harbor, Me.) were maintained in individual cages at 22° C. on a 12:12 hr light/dark cycle. The “treated” mice (N=12) were administered a Thiazole Derivative (10 mg/kg) by gavage once daily for four consecutive days. Control mice (N=12) were administered vehicle only, once daily for four days. Both control and treated mice were fed a high-fat diet from days 0 to 4 and body weight and food intake was monitored daily. The percent inhibition for weight gain and food intake was calculated by comparing the increase in weight gain and food intake in the treated mice to the increase in weight gain and food intake in the control mice.

[1] = molecular target: T1, H3 receptors, guinea pig brain (Cavia porcellus, UniProt Q9JI35); assay: H3-receptor binding assay, guinea pig brain; settings: guinea pig brain membranes; 3 nM [3H]R-α-methyl histamine or [3H]Nα-methyl histamine, 30° C., 30 min
T1 construct: The source of the H3 receptors in this experiment was guinea pig brain; from tissue; host or cells: guinea pig brain membranes
T1 sequence (Q9JI35 whole entry): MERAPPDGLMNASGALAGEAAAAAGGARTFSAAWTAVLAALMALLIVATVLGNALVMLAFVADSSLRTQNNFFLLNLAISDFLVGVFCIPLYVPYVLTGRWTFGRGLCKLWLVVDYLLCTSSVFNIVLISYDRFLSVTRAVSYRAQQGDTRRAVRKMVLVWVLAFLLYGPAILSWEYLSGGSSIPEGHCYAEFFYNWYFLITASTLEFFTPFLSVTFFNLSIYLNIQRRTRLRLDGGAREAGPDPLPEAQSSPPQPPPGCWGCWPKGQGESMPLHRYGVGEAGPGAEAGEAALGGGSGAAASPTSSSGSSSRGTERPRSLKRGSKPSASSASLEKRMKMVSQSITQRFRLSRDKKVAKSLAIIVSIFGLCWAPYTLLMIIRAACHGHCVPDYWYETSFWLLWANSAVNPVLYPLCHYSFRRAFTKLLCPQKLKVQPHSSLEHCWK
Protocol: (§1) The source of the H3 receptors in this experiment was guinea pig brain. Alternatively, the source of H3 receptors was recombinant human receptor, expressed in HEK-293 (human embryonic kidney) cells.
The animals weighed 400-600 g. The brain tissue was homogenized with a solution of 50 mM Tris, pH 7.5. The final concentration of tissue in the homogenization buffer was 10% w/v. The homogenates were centrifuged at 1,000×g for 10 min. in order to remove clumps of tissue and debris. The resulting supernatants were then centrifuged at 50,000×g for 20 min. in order to sediment the membranes, which were next washed three times in homogenization buffer (50,000×g for 20 min. each). The membranes were frozen and stored at −70° C. until needed.
All compounds to be tested were dissolved in DMSO and then diluted into the binding buffer (50 mM Tris, pH 7.5) such that the final concentration was 2 μg/ml with 0.1% DMSO. Membranes were then added (400 μg of protein, 5 μg in the case of recombinant human receptor) to the reaction tubes. The reaction was started by the addition of 3 nM [^3H]R-α-methyl histamine (8.8 Ci/mmol) or 3 nM [^3H]N^α-methyl histamine (80 Ci/mmol) and continued under incubation at 30° C. for 30 min. Bound ligand was separated from unbound ligand by filtration, and the amount of radioactive ligand bound to the membranes was quantitated by liquid scintillation spectrometry. […]

[2] = molecular target: T2, recombinant human H3 receptor, expressed in HEK-293 cells (Homo sapiens, UniProt Q9Y5N1); assay: H3-receptor binding assay, recombinant human receptor; settings: recombinant human receptor in HEK-293 membranes; 3 nM [3H]R-α-methyl histamine or [3H]Nα-methyl histamine, 30° C., 30 min
T2 construct: expressed in transfected cells; host or cells: HEK-293 (human embryonic kidney) cells
T2 sequence (Q9Y5N1 whole entry): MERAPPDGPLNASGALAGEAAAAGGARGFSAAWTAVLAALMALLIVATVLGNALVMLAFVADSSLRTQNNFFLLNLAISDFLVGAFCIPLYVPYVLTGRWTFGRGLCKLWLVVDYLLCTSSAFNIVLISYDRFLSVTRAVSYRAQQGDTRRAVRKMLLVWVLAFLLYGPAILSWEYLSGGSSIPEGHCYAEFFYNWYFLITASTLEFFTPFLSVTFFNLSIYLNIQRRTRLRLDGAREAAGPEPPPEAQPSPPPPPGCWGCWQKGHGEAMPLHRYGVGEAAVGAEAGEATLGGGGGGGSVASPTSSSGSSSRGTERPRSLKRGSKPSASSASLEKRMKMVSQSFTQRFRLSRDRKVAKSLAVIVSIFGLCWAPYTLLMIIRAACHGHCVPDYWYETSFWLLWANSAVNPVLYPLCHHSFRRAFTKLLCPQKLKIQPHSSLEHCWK
Protocol: as §1
All compounds to be tested were dissolved in DMSO and then diluted into the binding buffer (50 mM Tris, pH 7.5) such that the final concentration was 2 μg/ml with 0.1% DMSO. Membranes were then added (400 μg of protein, 5 μg in the case of recombinant human receptor) to the reaction tubes. The reaction was started by the addition of 3 nM [^3H]R-α-methyl histamine (8.8 Ci/mmol) or 3 nM [^3H]N^α-methyl histamine (80 Ci/mmol) and continued under incubation at 30° C. for 30 min. Bound ligand was separated from unbound ligand by filtration, and the amount of radioactive ligand bound to the membranes was quantitated by liquid scintillation spectrometry. All incubations were performed in duplicate and the standard error was always less than 10%. Compounds that inhibited more than 70% of the specific binding of radioactive ligand to the receptor were serially diluted to determine a Ki (nM).

Ki [1] | Ki [2] | Compound | Food intake Inhibition (%) (mice fed a high-fat diet) | Weight Gain Inhibition (%) (mice fed a high-fat diet)
– | – | Nc1cc(CN2CCC(Oc3ccc(-n4c(-c5ccccn5)nc5cccnc54)cc3)CC2)ccn1 [Compound 4A] | 15.9% | 74.1%
– | – | CN1CCN(c2ccc(OC3CCN(Cc4ccnc(N)c4)CC3)cc2)CC1 [Compound 22A] | 11.2% | 42.4%
– | – | Nc1cc(CN2CCC(Oc3ccc(-n4c(C(F)(F)C(F)(F)F)nc5cccnc54)cc3)CC2)ccn1 [Compound 36A] | 12.7% | 58.0%
18 nM | 0.6 nM | Nc1cc(CN2CCC(Oc3ccc(-n4c(-c5ncccc5F)nc5cccnc54)cc3)CC2)ccn1 [Compound 69A] | – | –
